Reference: patent publication US12692221B2 (priority 2024, dated 2026)

Tests used:
COX1(h) = COX1(h) (Homo sapiens, UniProt P23219); experiment: Enzyme assay COX1(h), arachidonic acid + ADHP, fluorimetry; format: biochemical
Protocol: (§1) Methods—Enzyme and Uptake Assays: In vitro enzyme and uptake assays were conducted by Eurofins Discovery using human recombinant enzymes expressed in various mammalian and insect cell lines. Enzymatic activity was measured using appropriate substrates or tracers under conditions optimized for each target, as detailed in Table 7. Reactions were incubated at room temperature for a defined duration and terminated according to established protocols. The measured components (either enzymatic products or remaining substrate) were quantified using fluorimetry, photometry, scintillation counting, or LANCE technology, depending on the assay. Assay-specific parameters, including substrate identity, cell line source, incubation time, and detection method, are provided in Table 7.
(§2) All measurements were performed in technical replicates to ensure reproducibility and data quality.
(§3) Results were expressed both as a percentage of control-specific activity and as percent inhibition of control-specific activity. Percent activity was calculated as (measured specific activity/control specific activity)×100, and percent inhibition as 100−[(measured specific activity/control specific activity)×100], based on values obtained in the presence of test compounds. IC50 and EC50 values, along with Hill coefficients (nH), were determined by nonlinear regression analysis of inhibition or concentration-response curves generated from mean replicate values. Hill curve fitting was performed as previously described using software developed at Cerep and validated against SigmaPlot® 4.0 for Windows® (© 1997 by SPSS Inc.).

kappa (KOP) (h) = target: T1, kappa (KOP) (h) (Homo sapiens, UniProt P41145); experiment: Radioligand binding kappa (KOP) (h) (agonist radioligand), [^3H]U69593, RBL cells; settings: kappa (h) (KOP) (agonist radiolig.)
T1 construct: expressed in transfected cells; host or cells: RBL cells

beta1 (h) = target: T2, beta1 (h) (Homo sapiens, UniProt P08588); experiment: Radioligand binding beta1 (h) (agonist radioligand), [^3H](−)CGP 12177, HEK-293 cells
T2 construct: expressed in transfected cells; host or cells: HEK-293 cells
Protocol: (§4) Methods—Binding Assays: In vitro binding assays were performed using human recombinant receptors expressed in mammalian cell lines. Receptors were expressed in either HEK-293 or CHO cells depending on the target, and assay conditions (radioligand, concentration, nonspecific competitor, temperature, and incubation time) were optimized for each receptor. All assays were conducted in triplicate, and specific binding was quantified by scintillation counting as the detection method for each listed assay.
(§5) Specific binding was expressed as a percentage of control-specific binding, and percent inhibition was calculated using the formula in Ex. 8 above. Half-maximal inhibitory concentrations (IC50) were determined by non-linear regression analysis of the inhibition curves using the Hill equation (see Ex. 8). Inhibition constants (Ki) were calculated using the Cheng-Prusoff equation (see Ex. 8). KD values used in these calculations had been previously established for each receptor under the assay conditions (see Table 6). Data analysis was performed using software developed at Cerep and validated against SigmaPlot 4.0 for Windows.

alpha2A (h) = target: T3, alpha2A (h) (Homo sapiens, UniProt P08913); experiment: Radioligand binding alpha2A (h) (antagonist radioligand), [^3H]RX 821002, CHO cells
T3 construct: expressed in transfected cells; host or cells: CHO cells
T3 sequence (P08913 1-465): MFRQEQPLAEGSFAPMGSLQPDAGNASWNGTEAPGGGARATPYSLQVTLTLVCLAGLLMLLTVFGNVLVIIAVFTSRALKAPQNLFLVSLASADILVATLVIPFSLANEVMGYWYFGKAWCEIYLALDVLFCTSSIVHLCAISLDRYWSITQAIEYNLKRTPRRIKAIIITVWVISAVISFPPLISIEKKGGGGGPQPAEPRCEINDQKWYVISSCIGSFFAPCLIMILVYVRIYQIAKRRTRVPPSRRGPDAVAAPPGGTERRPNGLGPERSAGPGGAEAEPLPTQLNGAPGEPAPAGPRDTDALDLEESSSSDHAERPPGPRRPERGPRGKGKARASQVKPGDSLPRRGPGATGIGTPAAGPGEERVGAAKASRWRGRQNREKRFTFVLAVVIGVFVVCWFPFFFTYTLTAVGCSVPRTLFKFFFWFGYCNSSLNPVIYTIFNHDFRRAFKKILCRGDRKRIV
Protocol: as §4, §5

ETA (h) = target: T4, ETA (h) (Homo sapiens, UniProt P25101); experiment: Radioligand binding ETA (h) (agonist radioligand), [^125I]endothelin-1, CHO cells
T4 construct: expressed in transfected cells; host or cells: CHO cells
T4 sequence (P25101 21-427): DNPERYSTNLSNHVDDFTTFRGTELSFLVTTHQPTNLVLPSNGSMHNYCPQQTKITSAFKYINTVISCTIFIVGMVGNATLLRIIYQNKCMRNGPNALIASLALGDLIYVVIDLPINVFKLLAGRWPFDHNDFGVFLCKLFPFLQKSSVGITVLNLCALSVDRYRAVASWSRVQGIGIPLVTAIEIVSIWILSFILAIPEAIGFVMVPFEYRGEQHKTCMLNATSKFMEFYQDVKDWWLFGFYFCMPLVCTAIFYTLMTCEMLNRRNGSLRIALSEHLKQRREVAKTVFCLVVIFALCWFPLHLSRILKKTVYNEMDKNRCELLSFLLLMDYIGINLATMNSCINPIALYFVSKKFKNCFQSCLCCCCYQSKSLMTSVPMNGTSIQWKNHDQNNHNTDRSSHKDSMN
Protocol: as §4, §5

D1 (h) = target: T5, D1 (h) (Homo sapiens, UniProt P21728); experiment: Radioligand binding D1 (h) (antagonist radioligand), [^3H]SCH 23390, CHO cells
T5 construct: expressed in transfected cells; host or cells: CHO cells
Protocol: as §4, §5

H2 (h) = target: T6, H2 (h) (Homo sapiens, UniProt P25021); experiment: Radioligand binding H2 (h) (antagonist radioligand), [^125I]APT, CHO cells
T6 construct: expressed in transfected cells; host or cells: CHO cells
Protocol: as §4, §5

V1a (h) = target: T7, V1a (h) (Homo sapiens, UniProt P37288); experiment: Radioligand binding V1a (h) (agonist radioligand), [^3H]AVP, CHO cells
T7 construct: expressed in transfected cells; host or cells: CHO cells
Protocol: as §4, §5

[1] = target: T8, norepinephrine transporter(h) (Homo sapiens, UniProt P23975); experiment: Radioligand binding NE transporter (h) (antagonist radioligand), [^3H]nisoxetine, CHO cells
T8 construct: expressed in transfected cells; host or cells: CHO cells
Protocol: as §4, §5

COX2(h) = target: T9, COX2(h) (Homo sapiens, UniProt P35354); experiment: Enzyme assay COX2(h), arachidonic acid + ADHP, fluorimetry; format: biochemical
T9 construct: host or cells: Sf9 cells
T9 sequence (P35354 18-604): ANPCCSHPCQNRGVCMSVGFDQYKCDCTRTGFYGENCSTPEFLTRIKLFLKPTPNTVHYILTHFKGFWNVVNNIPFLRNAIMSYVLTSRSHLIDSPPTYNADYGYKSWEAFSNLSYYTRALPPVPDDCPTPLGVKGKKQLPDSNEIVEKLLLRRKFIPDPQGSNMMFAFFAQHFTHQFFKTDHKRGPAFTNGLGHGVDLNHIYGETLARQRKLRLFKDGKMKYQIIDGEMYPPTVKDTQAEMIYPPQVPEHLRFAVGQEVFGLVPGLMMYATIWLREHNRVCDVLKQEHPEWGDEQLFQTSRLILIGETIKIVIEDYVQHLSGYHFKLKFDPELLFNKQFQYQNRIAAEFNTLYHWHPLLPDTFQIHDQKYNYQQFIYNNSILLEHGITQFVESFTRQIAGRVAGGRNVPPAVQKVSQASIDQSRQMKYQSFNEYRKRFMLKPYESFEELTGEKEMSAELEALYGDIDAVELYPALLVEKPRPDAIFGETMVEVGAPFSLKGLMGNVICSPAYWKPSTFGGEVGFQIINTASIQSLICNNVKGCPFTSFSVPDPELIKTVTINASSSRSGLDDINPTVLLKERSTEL
Protocol: as §1, §2, §3

T8 sequence (P23975 whole entry): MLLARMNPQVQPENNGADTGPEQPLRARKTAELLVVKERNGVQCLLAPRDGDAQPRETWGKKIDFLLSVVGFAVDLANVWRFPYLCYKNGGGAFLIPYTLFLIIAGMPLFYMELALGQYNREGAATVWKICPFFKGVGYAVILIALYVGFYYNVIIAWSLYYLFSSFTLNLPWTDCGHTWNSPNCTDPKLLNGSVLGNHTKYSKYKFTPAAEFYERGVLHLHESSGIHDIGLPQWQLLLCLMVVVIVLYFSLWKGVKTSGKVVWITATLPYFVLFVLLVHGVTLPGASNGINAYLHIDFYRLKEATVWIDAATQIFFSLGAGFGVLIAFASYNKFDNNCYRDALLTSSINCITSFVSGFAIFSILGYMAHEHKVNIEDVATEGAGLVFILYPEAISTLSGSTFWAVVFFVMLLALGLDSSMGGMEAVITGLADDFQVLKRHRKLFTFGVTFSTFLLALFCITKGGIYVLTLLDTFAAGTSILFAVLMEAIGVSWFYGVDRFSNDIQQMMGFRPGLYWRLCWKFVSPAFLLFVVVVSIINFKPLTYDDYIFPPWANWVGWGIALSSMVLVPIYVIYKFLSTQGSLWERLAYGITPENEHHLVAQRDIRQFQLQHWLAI
T2 sequence (P08588 whole entry): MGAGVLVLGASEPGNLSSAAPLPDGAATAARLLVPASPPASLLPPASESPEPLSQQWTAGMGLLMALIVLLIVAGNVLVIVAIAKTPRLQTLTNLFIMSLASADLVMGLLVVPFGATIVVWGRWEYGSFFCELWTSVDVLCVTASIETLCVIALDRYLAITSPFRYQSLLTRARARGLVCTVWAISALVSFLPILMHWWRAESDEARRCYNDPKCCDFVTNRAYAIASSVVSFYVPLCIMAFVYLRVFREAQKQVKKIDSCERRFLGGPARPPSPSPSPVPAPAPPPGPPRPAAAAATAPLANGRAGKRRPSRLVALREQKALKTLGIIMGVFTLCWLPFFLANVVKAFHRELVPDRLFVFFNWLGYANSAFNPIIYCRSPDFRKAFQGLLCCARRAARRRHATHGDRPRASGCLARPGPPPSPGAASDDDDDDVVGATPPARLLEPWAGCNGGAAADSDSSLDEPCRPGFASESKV
Sequence of COX1(h) (P23219 24-599): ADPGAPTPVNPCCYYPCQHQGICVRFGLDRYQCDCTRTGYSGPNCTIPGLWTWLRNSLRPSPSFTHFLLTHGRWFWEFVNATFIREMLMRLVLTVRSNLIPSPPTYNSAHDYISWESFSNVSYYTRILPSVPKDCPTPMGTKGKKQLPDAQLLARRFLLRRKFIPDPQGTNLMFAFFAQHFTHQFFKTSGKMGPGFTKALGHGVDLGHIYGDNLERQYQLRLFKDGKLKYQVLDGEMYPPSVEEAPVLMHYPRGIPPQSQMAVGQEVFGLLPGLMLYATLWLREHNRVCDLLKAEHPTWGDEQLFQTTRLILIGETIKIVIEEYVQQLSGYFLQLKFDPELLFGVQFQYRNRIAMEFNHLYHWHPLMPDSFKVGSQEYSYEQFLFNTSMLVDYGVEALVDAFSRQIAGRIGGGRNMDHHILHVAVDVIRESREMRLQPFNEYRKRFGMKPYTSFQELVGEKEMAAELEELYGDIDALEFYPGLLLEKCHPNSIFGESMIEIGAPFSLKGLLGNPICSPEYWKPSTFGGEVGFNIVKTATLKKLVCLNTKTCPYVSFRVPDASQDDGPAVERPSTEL
T6 sequence (P25021 whole entry): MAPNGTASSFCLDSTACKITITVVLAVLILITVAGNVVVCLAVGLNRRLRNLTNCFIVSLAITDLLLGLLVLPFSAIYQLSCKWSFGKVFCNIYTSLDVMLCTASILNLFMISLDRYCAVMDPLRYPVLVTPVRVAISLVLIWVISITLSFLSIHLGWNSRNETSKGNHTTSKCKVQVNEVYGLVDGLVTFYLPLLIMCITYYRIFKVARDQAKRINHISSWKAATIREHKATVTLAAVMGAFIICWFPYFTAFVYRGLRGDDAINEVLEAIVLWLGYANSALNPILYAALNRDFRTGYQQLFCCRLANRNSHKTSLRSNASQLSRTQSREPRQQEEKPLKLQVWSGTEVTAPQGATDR
T7 sequence (P37288 whole entry): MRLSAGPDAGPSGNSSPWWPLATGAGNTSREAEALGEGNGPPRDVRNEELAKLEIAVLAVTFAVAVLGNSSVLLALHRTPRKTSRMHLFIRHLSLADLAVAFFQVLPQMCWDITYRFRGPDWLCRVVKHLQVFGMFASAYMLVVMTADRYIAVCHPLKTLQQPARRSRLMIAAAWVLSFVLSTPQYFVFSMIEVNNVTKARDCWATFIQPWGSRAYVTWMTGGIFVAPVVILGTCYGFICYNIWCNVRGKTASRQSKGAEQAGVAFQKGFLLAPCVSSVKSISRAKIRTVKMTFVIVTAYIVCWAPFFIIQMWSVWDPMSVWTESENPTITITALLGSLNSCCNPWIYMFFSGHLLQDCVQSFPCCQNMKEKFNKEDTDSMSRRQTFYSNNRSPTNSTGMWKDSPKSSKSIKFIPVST
T5 sequence (P21728 whole entry): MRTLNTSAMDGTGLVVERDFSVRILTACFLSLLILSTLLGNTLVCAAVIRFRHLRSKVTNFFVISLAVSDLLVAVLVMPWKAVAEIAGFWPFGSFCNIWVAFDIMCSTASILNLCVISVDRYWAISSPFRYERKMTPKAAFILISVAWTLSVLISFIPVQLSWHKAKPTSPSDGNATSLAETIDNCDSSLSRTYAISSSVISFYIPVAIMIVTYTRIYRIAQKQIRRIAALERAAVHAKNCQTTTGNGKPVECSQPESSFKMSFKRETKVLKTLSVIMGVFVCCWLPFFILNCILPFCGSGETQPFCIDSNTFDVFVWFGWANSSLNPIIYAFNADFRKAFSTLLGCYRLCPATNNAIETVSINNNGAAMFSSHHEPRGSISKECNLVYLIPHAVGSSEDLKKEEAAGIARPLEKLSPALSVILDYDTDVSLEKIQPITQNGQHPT
T1 sequence (P41145 whole entry): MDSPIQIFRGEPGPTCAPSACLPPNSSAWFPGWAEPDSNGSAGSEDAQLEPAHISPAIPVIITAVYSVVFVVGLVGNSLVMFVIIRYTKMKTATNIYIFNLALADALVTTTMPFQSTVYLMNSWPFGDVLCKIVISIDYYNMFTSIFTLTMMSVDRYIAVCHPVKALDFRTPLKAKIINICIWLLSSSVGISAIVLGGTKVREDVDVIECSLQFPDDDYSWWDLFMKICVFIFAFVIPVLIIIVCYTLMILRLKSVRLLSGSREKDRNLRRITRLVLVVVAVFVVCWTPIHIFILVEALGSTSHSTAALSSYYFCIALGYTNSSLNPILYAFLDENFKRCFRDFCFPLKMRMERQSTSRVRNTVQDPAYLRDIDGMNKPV

Compound	Mean Percent Inhibition of Control Specific Binding (COX1(h)) [%]	Mean Percent Inhibition of Control Specific Binding (kappa (KOP) (h)) [%]	Mean Percent Inhibition of Control Specific Binding (beta1 (h)) [%]	Mean Percent Inhibition of Control Specific Binding (alpha2A (h)) [%]	Mean Percent Inhibition of Control Specific Binding (ETA (h)) [%]	Mean Percent Inhibition of Control Specific Binding (D1 (h)) [%]	Mean Percent Inhibition of Control Specific Binding (H2 (h)) [%]	Mean Percent Inhibition of Control Specific Binding (V1a (h)) [%]	Mean Percent Inhibition of Control Specific Binding [1] [%]	Mean Percent Inhibition of Control Specific Binding (COX2(h)) [%]
COCc1cc(CCN)c(O)cc1CC(C)C [2CiBu-2OH-5MM, 2-(2-aminoethyl)-5-isobutyl-4-(methoxymethyl)phenol]	−37.4	28.2	84.5	79.4	−9.0	4.0	12.5	4.8	17.4	10.2
COCCc1cc(CCN)c(OC)cc1Br [Compound 2CB-5ME, reference compound]	−4.7	11.2	26.2	73.0	−3.5	28.1	−0.6	11.2	11.4	−10.4
COCc1cc(CCN)c(OC)cc1Br [Compound 2CB-5MM, 2-(4-bromo-2-methoxy-5-(methoxymethyl)phenyl)ethan-1-amine]	0.3	11.4	19	80.2	−6.5	21.1	−14.7	5.5	0.2	−8.0
COCc1cc(CCN)c(OC)cc1CC(C)C [Compound 2CiBu-5MM, 2-[4-isobutyl-2-methoxy-5-(methoxymethyl)phenyl]ethanamine]	13.8	29.8	36.0	88.5	−1.5	−1.4	−16.5	5.3	−5.4	−7.0
